≈ marks a conversion by molar mass, not a printed value.
What follows are compounds tested on Mycobacterium tuberculosis (assay: Antitubercular activity against multi-drug-resistant Mycobacterium tuberculosis H37Rv clinical isolate after 28 days by 10 fold serial dilution method). Conditions: 672 h.
Assay type: functional

SMILES	MIC [µM]
c1ccc(-c2nc3ccccc3c(-c3ccccc3)c2Oc2ccc(-c3cc(-c4ccccc4)c4ccccc4n3)cc2)cc1	43.4 (≈ 25 µg/mL)
Cc1ccc(-c2nc3ccccc3c(-c3ccccc3)c2Oc2ccc(-c3cc(-c4ccccc4)c4ccccc4n3)cc2)cc1	42.3 (≈ 25 µg/mL)
Clc1ccc(-c2nc3ccccc3c(-c3ccccc3)c2Oc2ccc(-c3cc(-c4ccccc4)c4ccccc4n3)cc2)cc1	20.5 (≈ 12.5 µg/mL)
Brc1ccc(-c2nc3ccccc3c(-c3ccccc3)c2Oc2ccc(-c3cc(-c4ccccc4)c4ccccc4n3)cc2)cc1	19.1 (≈ 12.5 µg/mL)
COc1ccc(-c2nc3ccccc3c(-c3ccccc3)c2Oc2ccc(-c3cc(-c4ccccc4)c4ccccc4n3)cc2)cc1	41.2 (≈ 25 µg/mL)
c1ccc(-c2cc(-c3ccc(Oc4c(-c5cccc6ccccc56)nc5ccccc5c4-c4ccccc4)cc3)nc3ccccc23)cc1	39.8 (≈ 24.9 µg/mL)
c1ccc(-c2cc(-c3ccc(Oc4c(-c5ccc6ccccc6c5)nc5ccccc5c4-c4ccccc4)cc3)nc3ccccc23)cc1	39.9 (≈ 25 µg/mL)
c1ccc(-c2ccc(-c3nc4ccccc4c(-c4ccccc4)c3Oc3ccc(-c4cc(-c5ccccc5)c5ccccc5n4)cc3)cc2)cc1	19.1 (≈ 12.5 µg/mL)
Clc1cccc(-c2nc3ccccc3c(-c3ccccc3)c2Oc2ccc(-c3cc(-c4ccccc4)c4ccccc4n3)cc2)c1	20.5 (≈ 12.5 µg/mL)
Brc1cccc(-c2nc3ccccc3c(-c3ccccc3)c2Oc2ccc(-c3cc(-c4ccccc4)c4ccccc4n3)cc2)c1	4.7 (≈ 3.08 µg/mL)
COc1cccc(-c2nc3ccccc3c(-c3ccccc3)c2Oc2ccc(-c3cc(-c4ccccc4)c4ccccc4n3)cc2)c1	41.2 (≈ 25 µg/mL)
Clc1ccc2nc(-c3ccc(Oc4c(-c5ccccc5)nc5ccc(Cl)cc5c4-c4ccccc4)cc3)cc(-c3ccccc3)c2c1	19.4 (≈ 12.5 µg/mL)
Cc1ccc(-c2nc3ccc(Cl)cc3c(-c3ccccc3)c2Oc2ccc(-c3cc(-c4ccccc4)c4cc(Cl)ccc4n3)cc2)cc1	37.9 (≈ 25 µg/mL)
Clc1ccc(-c2nc3ccc(Cl)cc3c(-c3ccccc3)c2Oc2ccc(-c3cc(-c4ccccc4)c4cc(Cl)ccc4n3)cc2)cc1	4.6 (≈ 3.13 µg/mL)
Clc1ccc2nc(-c3ccc(Oc4c(-c5ccc(Br)cc5)nc5ccc(Cl)cc5c4-c4ccccc4)cc3)cc(-c3ccccc3)c2c1	2.2 (≈ 1.59 µg/mL)
Clc1ccc2nc(-c3ccc(Oc4c(-c5ccc6ccccc6c5)nc5ccc(Cl)cc5c4-c4ccccc4)cc3)cc(-c3ccccc3)c2c1	35.9 (≈ 25 µg/mL)
Clc1ccc2nc(-c3ccc(Oc4c(-c5cccc(Br)c5)nc5ccc(Cl)cc5c4-c4ccccc4)cc3)cc(-c3ccccc3)c2c1	1.1 (≈ 0.797 µg/mL)
CC(=O)c1ccc(Oc2c(-c3ccccc3)nc3ccc(Cl)cc3c2-c2ccccc2)cc1	55.6 (≈ 25 µg/mL)
CC(=O)c1ccc(Oc2c(-c3ccc(C)cc3)nc3ccc(Cl)cc3c2-c2ccccc2)cc1	53.8 (≈ 25 µg/mL)
CC(=O)c1ccc(Oc2c(-c3ccc(Cl)cc3)nc3ccc(Cl)cc3c2-c2ccccc2)cc1	51.6 (≈ 25 µg/mL)
CC(=O)c1ccc(Oc2c(-c3ccc(Br)cc3)nc3ccc(Cl)cc3c2-c2ccccc2)cc1	47.3 (≈ 25 µg/mL)
CC(=O)c1ccc(Oc2c(-c3ccc4ccccc4c3)nc3ccc(Cl)cc3c2-c2ccccc2)cc1	50 (≈ 25 µg/mL)
CC(=O)c1ccc(Oc2c(-c3cccc(Br)c3)nc3ccc(Cl)cc3c2-c2ccccc2)cc1	11.8 (≈ 6.24 µg/mL)
CC[C@@H](CO)NCCN[C@@H](CC)CO [ETHAMBUTOL]	7.6 (≈ 1.55 µg/mL)
NNC(=O)c1ccncc1 [ISONIAZID]	0.4 (≈ 0.0549 µg/mL)
NC(=O)c1cnccn1 [PYRAZINAMIDE]	50.8 (≈ 6.25 µg/mL)
CO[C@H]1/C=C/O[C@@]2(C)Oc3c(C)c(O)c4c(O)c(c(/C=N/N5CCN(C)CC5)c(O)c4c3C2=O)NC(=O)/C(C)=C\C=C\[C@H](C)[C@H](O)[C@@H](C)[C@@H](O)[C@@H](C)[C@H](OC(C)=O)[C@@H]1C [RIFAMPIN]	0.1 (≈ 0.0823 µg/mL)

What follows are compounds tested on Mycobacterium tuberculosis (assay: Ratio of Ciprofloxacin MIC to compound MIC for multi-drug-resistant Mycobacterium tuberculosis H37Rv clinical isolate). Conditions: not given.
Assay type: functional

SMILES	Ratio
Clc1ccc2nc(-c3ccc(Oc4c(-c5ccc(Br)cc5)nc5ccc(Cl)cc5c4-c4ccccc4)cc3)cc(-c3ccccc3)c2c1	2.14
Clc1ccc2nc(-c3ccc(Oc4c(-c5cccc(Br)c5)nc5ccc(Cl)cc5c4-c4ccccc4)cc3)cc(-c3ccccc3)c2c1	4.27

What follows are compounds tested on Mycobacterium tuberculosis (assay: Ratio of Ethambutol MIC to compound MIC for multi-drug-resistant Mycobacterium tuberculosis H37Rv clinical isolate). Conditions: not given.
Assay type: functional

SMILES	Ratio
Clc1ccc2nc(-c3ccc(Oc4c(-c5ccc(Br)cc5)nc5ccc(Cl)cc5c4-c4ccccc4)cc3)cc(-c3ccccc3)c2c1	3.45

Reference: ChEMBL document CHEMBL1949623, “Camphorsulfonic acid catalysed facile tandem double Friedlander annulation protocol for the synthesis of phenoxy linked bisquinoline derivatives and discovery of antitubercular agents” (Bioorg Med Chem Lett, 2012)
